# Results reported in patent US12343352B2, “N-(phenylsulfonyl)benzamides and related compounds as Bcl-2 inhibitors” (ASCENTAGE PHARMA (SUZHOU) CO., LTD., priority 2019, dated 2025).
# What was measured:
# [1] = Steady state pharmacokinetics in patients following multiple oral doses; assay type: in vivo; details: human, plasma, multiple oral doses of 400 mg once daily; for AUC(0-t): read-out: AUC(0-24 h); for half-life: read-out: T½ (converted)
# [2] = Dog liver microsome assay / metabolites in dog plasma; assay type: in vitro ADME
# Protocol: (§1) Metabolism studies of Compound 1 and Compound Z were evaluated in both mouse and dog liver microsome assays.
# CYP enzymes = test: Comparative metabolism studies: metabolizing CYP enzymes and CYP inhibition/induction (liver microsome assays); assay type: in vitro ADME
# Protocol: as §1
# [3] = Pharmacokinetic properties of Compound 1 compared with Compound Z (systemic exposure and tumor tissues); assay type: in vivo; details: versus Compound Z
# [4] = Mouse liver microsome assay / metabolites in mouse plasma; assay type: in vitro ADME
# Protocol: as §1
# [5] = Metabolites in human plasma; assay type: in vivo
SMILES,Cmax [1] [ng/mL],Tmax [1] [h],AUC(0-t) [1] [ng·h/mL],half-life [1] [h],metabolites found in dog plasma [2],inhibition or induction of major CYP enzymes (CYP enzymes),"mainly metabolized by (CYP enzymes) (CYP enzymes; mouse, dog, microsomes)",Cmax in systemic exposure relative to Compound Z ([3]; systemic exposure),half-life in systemic exposure relative to Compound Z ([3]; systemic exposure),Cmax in tumor tissues relative to Compound Z ([3]; tumor tissues),half-life in tumor tissues relative to Compound Z ([3]; tumor tissues),major metabolite (>10%) in mouse plasma ([4]; mouse liver microsome assay),mainly metabolized by (CYP enzymes) (CYP enzymes; mouse and dog liver microsome assays),other metabolites found in mouse plasma ([4]; mouse plasma),major metabolite (>10%) in human plasma [5]
"O=C(NS(=O)(=O)c1ccc(NC[C@H]2COCCO2)c([N+](=O)[O-])c1)c1ccc(N2CCN(CC3=C(c4ccc(Cl)cc4)CC4(CCC4)CC3)CC2)cc1Oc1cnc2[nH]ccc2c1 [Compound 1, (S)-N-((4-(((1,4-dioxan-2-yl)methyl)amino)-3-nitrophenyl)sulfonyl)-2-((1H-pyrrolo[2,3-b]pyridin-5-yl)oxy)-4-(4-((6-(4-chlorophenyl)spiro[3.5]non-6-en-7-yl)methyl)piperazin-1-yl)benzamide]",970,6,9960,4.43,minor oxidation metabolites,not found to inhibit or induce any major CYP enzymes,CYP3A4 and CYP2C8,higher,shorter,higher,similar,amide bond hydrolysis M2,–,–,–
"CC1(C)CCC(CN2CCN(c3ccc(C(=O)NS(=O)(=O)c4ccc(NCC5CCOCC5)c([N+](=O)[O-])c4)c(Oc4cnc5[nH]ccc5c4)c3)CC2)=C(c2ccc(Cl)cc2)C1 [Compound Z, Venetoclax, reference compound]",2180,7,35500,26,minor oxidation metabolites,–,–,–,–,–,–,–,CYP3A4 and CYP3A5,minor oxidation metabolites,oxidative metabolite M27
